Entries after “also recorded” stand apart in the source; their conditions may differ. Counter-ions that a name gives are not always drawn.

The test system of the first experiment is A/HK/2671/2019 (H3N2). The experiment is classed as cell-based, influenza virus.
Details: not given
`NC12CC3CC(CC(C3)C1)C2` [Amantadine, Amantadine hydrochloride]: the “antiviral activity against A/HK/2671/2019 (H3N2)” value is listed as “did not show antiviral activity; also recorded: no significant protection”.

The experiment is the same for the next values; noted with them: read-out: EC50 ± SD A/HK/2671/2019 (H3N2).
For `NC(=O)c1ncn([C@@H]2O[C@H](CO)[C@@H](O)[C@H]2O)n1` [Ribavirin, ribavirin], the EC50 amounted to 19800 ± 3260 nM.
Same read-out and setting: for `COc1ccc(Br)cc1CNC12CC3CC(CC(C3)C1)C2` [ABMA, 1-adamantyl (5-bromo-2-methoxybenzyl) amine] the value was 2830 ± 260 nM; for `CCOC(=O)C1=C[C@@H](OC(CC)CC)[C@H](NC(C)=O)[C@@H](N)C1` [Oseltamivir, Oseltamivir phosphate], 1790 ± 640 nM; for `NC12CC3CC(CC(C3)C1)C2` [Amantadine, Amantadine hydrochloride], greater than 100000 nM.
On the same count and under the same terms, for `COc1ccc(Br)cc1CNC12CC3CC(C)(CC(C)(C3)C1)C2` [DABMA, 1,3-dimethyl-1-adamantyl (5-bromo-2-methoxybenzyl) amine] the value was 2950 ± 270 nM.

(Values after publication PMC8999625, “Antiviral Effects of ABMA and DABMA against Influenza Virus In Vitro and In Vivo via Regulating the Endolysosomal Pathway and Autophagy” (International Journal of Molecular Sciences, 2022).)
